Measured values: ChEMBL document CHEMBL1151999, “3-Lithioquinuclidin-2-ene: A novel intermediate for the synthesis of muscarinic agonists and antagonists” (Bioorg Med Chem Lett, 1994)

Legend:
[1] = target: Muscarinic acetylcholine receptor M3 (Homo sapiens, UniProt P20309); assay: In vitro binding affinity towards muscarinic receptor in parotid gland (M3); type: tissue-based
[2] = target: T1, Muscarinic acetylcholine receptor M2 (Homo sapiens, UniProt P08172); assay: In vitro binding affinity towards muscarinic receptor in heart (M2) was determined
T1 sequence (P08172 whole entry): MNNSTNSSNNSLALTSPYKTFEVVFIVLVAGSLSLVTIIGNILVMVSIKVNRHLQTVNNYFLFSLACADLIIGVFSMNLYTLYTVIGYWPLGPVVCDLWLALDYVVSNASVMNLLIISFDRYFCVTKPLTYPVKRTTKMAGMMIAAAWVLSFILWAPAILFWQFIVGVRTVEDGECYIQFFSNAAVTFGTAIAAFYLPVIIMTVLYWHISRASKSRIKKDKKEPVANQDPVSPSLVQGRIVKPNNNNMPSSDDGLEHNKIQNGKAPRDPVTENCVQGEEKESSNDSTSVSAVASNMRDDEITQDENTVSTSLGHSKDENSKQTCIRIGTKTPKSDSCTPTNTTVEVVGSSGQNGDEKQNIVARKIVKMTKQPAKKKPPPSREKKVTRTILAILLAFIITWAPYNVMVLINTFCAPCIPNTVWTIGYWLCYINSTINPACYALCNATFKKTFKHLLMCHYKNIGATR

[3] = target: Muscarinic acetylcholine receptor; assay: In vitro binding affinity towards muscarinic receptor in urinary bladder was determined; type: protein assay, Cavia porcellus
[4] = target: T2, Muscarinic acetylcholine receptor M1 (Homo sapiens, UniProt P11229); assay: In vitro binding affinity towards muscarinic receptor in cerebral cortex (M1) was determined; type: tissue-based
T2 sequence (P11229 whole entry): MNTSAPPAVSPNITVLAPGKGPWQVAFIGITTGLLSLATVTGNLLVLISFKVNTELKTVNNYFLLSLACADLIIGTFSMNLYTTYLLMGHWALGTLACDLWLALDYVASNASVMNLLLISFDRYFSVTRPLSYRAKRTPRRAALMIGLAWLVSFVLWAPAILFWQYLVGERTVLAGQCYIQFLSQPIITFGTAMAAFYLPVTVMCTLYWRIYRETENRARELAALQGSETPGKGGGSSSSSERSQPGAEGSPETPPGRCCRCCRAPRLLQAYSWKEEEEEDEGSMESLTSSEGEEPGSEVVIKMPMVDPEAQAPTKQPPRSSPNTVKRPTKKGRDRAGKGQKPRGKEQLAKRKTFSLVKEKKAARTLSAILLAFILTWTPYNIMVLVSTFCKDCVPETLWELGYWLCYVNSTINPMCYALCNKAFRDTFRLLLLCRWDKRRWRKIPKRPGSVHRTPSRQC

[5] = target: Muscarinic acetylcholine receptor (Cavia porcellus); assay: Binding affinity towards muscarinic receptor in urinary bladder was determined

Muscarinic acetylcholine receptor M3, sequence (P20309 whole entry): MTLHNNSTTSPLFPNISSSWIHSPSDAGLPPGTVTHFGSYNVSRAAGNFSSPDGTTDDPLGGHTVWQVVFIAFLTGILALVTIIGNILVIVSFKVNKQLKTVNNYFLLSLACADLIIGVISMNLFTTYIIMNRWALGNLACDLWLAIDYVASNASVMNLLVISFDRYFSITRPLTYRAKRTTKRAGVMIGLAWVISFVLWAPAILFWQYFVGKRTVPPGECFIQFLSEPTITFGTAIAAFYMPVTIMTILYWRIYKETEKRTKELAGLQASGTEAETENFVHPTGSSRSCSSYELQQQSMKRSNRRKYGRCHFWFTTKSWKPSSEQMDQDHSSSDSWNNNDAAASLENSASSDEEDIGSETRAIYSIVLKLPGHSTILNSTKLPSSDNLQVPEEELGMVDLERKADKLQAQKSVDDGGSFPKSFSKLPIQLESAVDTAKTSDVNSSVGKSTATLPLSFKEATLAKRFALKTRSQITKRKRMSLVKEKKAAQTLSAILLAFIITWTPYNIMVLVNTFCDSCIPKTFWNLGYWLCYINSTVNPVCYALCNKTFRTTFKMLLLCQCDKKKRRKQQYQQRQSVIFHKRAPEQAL

Structure (SMILES) | Ki [1] [nM] | Ki [2] [nM] | Ki [3] [nM] | Ki [4] [nM] | Kb [5] [nM]
O=Cc1ccc(C2=CN3CCC2CC3)s1 | 4800 | 2600 | 5700 | 990 | 
OC1(C2=CN3CCC2CC3)c2ccccc2-c2ccccc21 | > 5000 | > 5000 | > 5000 | > 5000 | 
OC1(C2=CN3CCC2CC3)c2ccccc2C=Cc2ccccc21 | > 200 | > 200 |  | > 200 | 
c1ccc2c(c1)C(=C1CN3CCC1CC3)c1ccccc1-2 | 100 | 98 | 249 | 50 | 370
COc1ccccc1C(O)C1=CN2CCC1CC2 (configuration not stated) | 1500 | 2200 | 2500 | 330 | 450
CC(=O)c1ccc(C2=CN3CCC2CC3)s1 | 2600 | 1550 | 2600 | 480 | 
OC1(C2=CN3CCC2CC3)c2ccccc2Oc2ccccc21 | 17000 | > 8000 |  | > 8000 | 
OC1(C2=CN3CCC2CC3)c2ccccc2CCc2ccccc21 | 6900 | 2400 | 8000 | 2040 | 
